In ChEMBL document CHEMBL3526078, “Pharmacokinetics and hepatic uptake of eltrombopag, a novel platelet-increasing agent” (Drug Metab Dispos, 2011):
Each block holds one molecule with its values, some of them ahead of it.

Tests used:
Kidney = assay: Tissue uptake clearance in mouse kidney at […] mg/kg, iv in presence of 30 umol/kg TPeA; type: ADME, organism-based; settings: in vivo
Liver = assay: Tissue uptake clearance in mouse liver at […] mg/kg, iv in presence of 30 umol/kg TPeA; type: ADME, organism-based; settings: in vivo
[1] = molecular target: T1, Solute carrier organic anion transporter family member 2B1 (Homo sapiens, UniProt O94956); assay: Inhibition of OATP2B1-mediated [3H]estrone-3-sulfate uptake in human OATP2B1 expressing HEK293/PDZK1 cells by scintillation counting; type: ADME, cell-based; settings: human, hek293/pdzk1
T1 sequence (O94956 whole entry): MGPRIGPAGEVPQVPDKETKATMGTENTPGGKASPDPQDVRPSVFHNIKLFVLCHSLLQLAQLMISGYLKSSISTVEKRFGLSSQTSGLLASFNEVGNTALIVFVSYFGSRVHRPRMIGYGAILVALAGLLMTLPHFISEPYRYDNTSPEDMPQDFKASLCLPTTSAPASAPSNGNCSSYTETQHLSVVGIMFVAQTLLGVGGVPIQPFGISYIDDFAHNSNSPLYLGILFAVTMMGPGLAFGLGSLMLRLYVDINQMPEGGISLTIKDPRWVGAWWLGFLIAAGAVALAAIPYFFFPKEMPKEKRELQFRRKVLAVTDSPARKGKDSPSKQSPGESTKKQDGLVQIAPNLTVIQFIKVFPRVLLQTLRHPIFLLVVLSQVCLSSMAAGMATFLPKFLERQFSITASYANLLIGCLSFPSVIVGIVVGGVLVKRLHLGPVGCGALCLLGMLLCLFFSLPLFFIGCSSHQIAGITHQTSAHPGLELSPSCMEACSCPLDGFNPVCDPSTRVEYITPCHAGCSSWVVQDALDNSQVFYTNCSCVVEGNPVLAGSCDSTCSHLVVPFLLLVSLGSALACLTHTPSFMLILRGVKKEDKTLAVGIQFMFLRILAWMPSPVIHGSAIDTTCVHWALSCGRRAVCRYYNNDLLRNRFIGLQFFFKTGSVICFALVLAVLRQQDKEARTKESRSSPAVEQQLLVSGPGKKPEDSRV

[2] = molecular target: T2, Solute carrier organic anion transporter family member 1B3 (Homo sapiens, UniProt Q9NPD5); assay: Inhibition of OATP1B3-mediated [3H]estradiol 17beta-glucuronide uptake in human OATP1B3 expressing HEK293/PDZK1 cells by scintillation counting; type: ADME, cell-based; settings: human, hek293/pdzk1
T2 sequence (Q9NPD5 whole entry): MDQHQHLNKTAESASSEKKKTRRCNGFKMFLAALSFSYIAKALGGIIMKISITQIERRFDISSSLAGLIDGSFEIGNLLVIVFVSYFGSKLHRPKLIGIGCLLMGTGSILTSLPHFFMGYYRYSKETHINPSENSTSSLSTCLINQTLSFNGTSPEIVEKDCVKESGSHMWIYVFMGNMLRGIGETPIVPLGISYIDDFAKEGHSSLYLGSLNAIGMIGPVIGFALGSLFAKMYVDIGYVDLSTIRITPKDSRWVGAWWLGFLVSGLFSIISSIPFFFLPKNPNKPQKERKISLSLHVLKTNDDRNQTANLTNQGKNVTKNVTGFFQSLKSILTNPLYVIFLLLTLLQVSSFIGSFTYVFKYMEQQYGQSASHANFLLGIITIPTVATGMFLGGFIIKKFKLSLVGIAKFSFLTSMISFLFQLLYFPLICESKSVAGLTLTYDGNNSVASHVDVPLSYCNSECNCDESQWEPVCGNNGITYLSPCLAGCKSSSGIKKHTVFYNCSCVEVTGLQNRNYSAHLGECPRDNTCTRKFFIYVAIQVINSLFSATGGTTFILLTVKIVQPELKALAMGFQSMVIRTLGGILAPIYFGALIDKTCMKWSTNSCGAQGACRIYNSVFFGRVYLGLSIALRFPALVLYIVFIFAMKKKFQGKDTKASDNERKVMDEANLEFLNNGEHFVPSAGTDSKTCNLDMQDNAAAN

[3] = molecular target: T3, Solute carrier organic anion transporter family member 1B1 (Homo sapiens, UniProt Q9Y6L6); assay: Inhibition of OATP1B1-mediated [3H]estrone-3-sulfate uptake in human OATP1B1 expressing HEK293/PDZK1 cells by scintillation counting; type: ADME, cell-based; settings: human, hek293/pdzk1
T3 sequence (Q9Y6L6 whole entry): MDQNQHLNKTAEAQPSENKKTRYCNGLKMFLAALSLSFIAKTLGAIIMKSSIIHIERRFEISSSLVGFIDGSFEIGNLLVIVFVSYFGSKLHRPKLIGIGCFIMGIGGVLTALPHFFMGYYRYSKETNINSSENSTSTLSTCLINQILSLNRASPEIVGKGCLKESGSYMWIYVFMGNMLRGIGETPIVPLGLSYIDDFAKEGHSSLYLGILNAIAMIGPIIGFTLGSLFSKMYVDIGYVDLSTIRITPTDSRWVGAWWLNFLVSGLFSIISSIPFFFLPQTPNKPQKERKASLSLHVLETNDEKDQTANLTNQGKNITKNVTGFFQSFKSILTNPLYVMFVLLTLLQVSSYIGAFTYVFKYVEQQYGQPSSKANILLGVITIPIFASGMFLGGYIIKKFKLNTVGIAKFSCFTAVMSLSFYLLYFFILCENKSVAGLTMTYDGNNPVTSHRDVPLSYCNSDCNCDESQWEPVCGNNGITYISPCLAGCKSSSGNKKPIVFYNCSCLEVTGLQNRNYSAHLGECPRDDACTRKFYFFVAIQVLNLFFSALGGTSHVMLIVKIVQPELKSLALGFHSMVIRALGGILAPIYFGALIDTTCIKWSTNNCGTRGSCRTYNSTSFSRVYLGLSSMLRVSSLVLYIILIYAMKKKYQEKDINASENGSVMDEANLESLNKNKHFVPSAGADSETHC

[4] = molecular target: T4, Solute carrier family 22 member 1 (Homo sapiens, UniProt O15245); assay: Inhibition of OCT1-mediated [14C]tetraethylammonium uptake in human OCT1 expressing HEK293/PDZK1 cells by scintillation counting; type: ADME, cell-based; settings: human, hek293/pdzk1
T4 sequence (O15245 whole entry): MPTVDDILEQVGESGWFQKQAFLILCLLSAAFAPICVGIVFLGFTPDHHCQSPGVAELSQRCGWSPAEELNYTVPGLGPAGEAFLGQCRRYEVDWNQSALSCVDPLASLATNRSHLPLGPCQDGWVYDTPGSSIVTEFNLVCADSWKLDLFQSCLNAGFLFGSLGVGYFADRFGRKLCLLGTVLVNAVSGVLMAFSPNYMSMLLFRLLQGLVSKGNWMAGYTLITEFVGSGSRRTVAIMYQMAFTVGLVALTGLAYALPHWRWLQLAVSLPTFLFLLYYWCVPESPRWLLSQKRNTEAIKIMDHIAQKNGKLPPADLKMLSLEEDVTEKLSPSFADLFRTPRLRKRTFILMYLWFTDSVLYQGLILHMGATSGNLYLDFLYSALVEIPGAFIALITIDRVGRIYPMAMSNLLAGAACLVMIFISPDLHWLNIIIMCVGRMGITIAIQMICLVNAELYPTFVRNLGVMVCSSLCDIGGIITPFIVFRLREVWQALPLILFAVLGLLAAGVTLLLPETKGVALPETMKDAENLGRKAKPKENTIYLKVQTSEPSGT

Drug uptake (Kidney): Not Active
Drug uptake (Liver): Not Active
Compound: CN(C)C(=N)N=C(N)N [METFORMIN]

Compound: O=C1OC(c2ccc(O)c(S(=O)(=O)O)c2)(c2ccc(O)c(S(=O)(=O)O)c2)c2c(Br)c(Br)c(Br)c(Br)c21 [SULFOBROMOPHTHALEIN]
inhibition (INH) [1]: Active
inhibition (INH) [2]: Active
inhibition (INH) [3]: Active

inhibition (INH) [4]: Active
Compound: CC[N+](CC)(CC)CC [TETRYLAMMONIUM]
